From PubChem BioAssay (NCI)
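Briefly, cells in 96-well plates were exposed to five compound concentrations for 48 h, and endpoints were estimated by linear interpolation. TGI: concentration producing complete growth inhibition.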

Experiments:
Assay in all cases: NCI tumour cell line growth inhibition, 48 h
[1] = system: U251 CNS
[2] = system: HT29 colon
[3] = system: OVCAR-3 ovarian
[4] = system: MOLT-4 leukemia
[5] = system: ACHN renal
[6] = system: UO-31 renal
[7] = system: CCRF-CEM leukemia
[8] = system: HCT-15 colon
[9] = system: SK-MEL-28 melanoma
[10] = system: MALME-3M melanoma
[11] = system: NCI-H522 lung
[12] = system: HOP-18 NSCLC
[13] = system: SK-MEL-5 melanoma
[14] = system: M14 melanoma
[15] = system: DMS 114 small cell lung
[16] = system: SN12C renal
[17] = system: DMS 273 small cell lung
[18] = system: NCI-H460 lung
[19] = system: DU-145 prostate
[20] = system: SF-268 CNS
[21] = system: KM12 colon
[22] = system: A549 NSCLC
[23] = system: SW-620 colon
[24] = system: LXFL 529 NSCLC
[25] = system: TK-10 renal
[26] = system: OVCAR-4 ovarian
[27] = system: CAKI-1 renal
[28] = system: M19-MEL melanoma
[29] = system: HCC-2998 colon
[30] = system: HOP-62 NSCLC
[31] = system: 786-0 renal
[32] = system: SR leukemia
[33] = system: RPMI-8226 leukemia
[34] = system: DLD-1 colon
[35] = system: LOX IMVI melanoma
[36] = system: SNB-19 CNS
[37] = system: EKVX NSCLC
[38] = system: UACC-257 melanoma
[39] = system: SF-539 CNS
[40] = system: SK-MEL-2 melanoma
[41] = system: SF-295 CNS
[42] = system: IGROV1 ovarian
[43] = system: SNB-78 CNS
[44] = system: SNB-75 CNS
[45] = system: HOP-92 NSCLC
[46] = system: RXF 393 renal
[47] = system: A498 renal
[48] = system: XF 498 CNS
[49] = system: KM20L2 colon
[50] = system: OVCAR-5 ovarian
[51] = system: OVCAR-8 ovarian
[52] = system: SK-OV-3 ovarian
[53] = system: NCI-H226 lung
[54] = system: NCI-H23 lung
[55] = system: HCT-116 colon
[56] = system: UACC-62 melanoma
[57] = system: HL-60(TB) leukemia
[58] = system: K-562 leukemia
[59] = system: COLO 205 colon

CCN(CC)CCOc1ccc(/C=C(\C#N)c2ccc(OCCN(CC)CC)cc2)cc1 was tested, and the TGI [1] was 35.8 µM, the TGI [2] was 8.58 µM and the TGI [3] was over 63.1 µM. For the same molecule, the TGI [4] was 38.2 µM, the TGI [5] was over 58.8 µM and the TGI [6] was 31.2 µM. For the same molecule, the TGI [7] was 44.2 µM, the TGI [8] was 30.8 µM and the TGI [9] was 32 µM. The TGI [10] was 28 µM, the TGI [11] was 24.9 µM and the TGI [12] was 57.3 µM. For the same molecule, the TGI [13] was 15.9 µM, the TGI [14] was 19.9 µM and the TGI [15] was 23.2 µM. The TGI [16] was over 100 µM, the TGI [17] was 26.5 µM and the TGI [18] was 36.6 µM. It also gave a TGI [19] of over 100 µM, a TGI [20] of 53.9 µM and a TGI [21] of 23.2 µM. It also gave a TGI [22] of 44.7 µM, a TGI [23] of 29.6 µM and a TGI [24] of 41.3 µM. It also gave a TGI [25] of over 91.3 µM, a TGI [26] of over 75.4 µM and a TGI [27] of over 60.1 µM. The TGI [28] was 28.9 µM, the TGI [29] was 32.3 µM and the TGI [30] was 22.6 µM. It also gave a TGI [31] of 25.5 µM, a TGI [32] of 30 µM and a TGI [33] of 50.1 µM. For the same molecule, the TGI [34] was over 83.3 µM, the TGI [35] was 25.5 µM and the TGI [36] was over 92 µM. The TGI [37] was over 80.6 µM, the TGI [38] was 31.3 µM and the TGI [39] was 20.6 µM. For the same molecule, the TGI [40] was 39.9 µM, the TGI [41] was 28 µM and the TGI [42] was over 52.4 µM. It also gave a TGI [43] of over 87.5 µM, a TGI [44] of 47.8 µM and a TGI [45] of 55.4 µM. The TGI [46] was 27.9 µM, the TGI [47] was 32.2 µM and the TGI [48] was 29.3 µM. The TGI [49] was 4.5 µM, the TGI [50] was over 66 µM and the TGI [51] was 42.6 µM. It also gave a TGI [52] of over 64.2 µM, a TGI [53] of over 78.4 µM and a TGI [54] of 42.6 µM. The TGI [55] was 21.9 µM, the TGI [56] was 31.9 µM and the TGI [57] was 38.2 µM. The TGI [58] was 23.5 µM and the TGI [59] was 23 µM.
